IC50 and inhibition data for 23 compounds are collected here from US11001591B2, “TRAF 6 inhibitors” (HELMHOLTZ ZENTRUM MUENCHEN—DEUTSCHES FORSCHUNGSZENTRUM FÜR …, priority 2016, dated 2021).

The target in one test is T1, TRAF6-UBC13 interaction (Homo sapiens, UniProt Q9Y4K3).
T1 construct: RING-Zincfinger1 (RZ1) domain (residues 50-159) of TRAF6 wildtype; made in house; host or cells: E. coli BL21 codon plus RIPL
T1 sequence (Q9Y4K3 50-159): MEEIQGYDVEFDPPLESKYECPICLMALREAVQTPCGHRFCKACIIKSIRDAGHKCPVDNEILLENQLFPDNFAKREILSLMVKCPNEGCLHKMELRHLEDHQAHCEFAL
Nature of the test: ALPHAScreen TRAF6WTStrepII-Ubc13FH interaction assay. In kind it is binding. As to conditions: inhibition of TRAF6-UBC13 interaction. The source says:
In order to identify small molecules that specifically target the RZ1 domain of TRAF6 and thereby prevent its binding to Ubc13, the ALPHAScreen technology (PerkinElmer) was chosen to detect TRAF6WTStrepII-Ubc13FH interaction in High-Throughput-Screenings as well as Structure Activity Relationship (SAR) analysis.
For performance of an automated ALPHAScreen assay, all following components were pre-diluted in ALPHAScreen buffer (1×PBS, 0.5% BSA, 0.01% Tween-20). First, the TRAF6 protein (end concentration 100 nM, 30 μL volume) was added to 384-well-opti-plates involving the MultiFlo dispensing system (BioTek) followed by transfer of the compounds via the Sciclone G3 transfer station (PerkinElmer). After addition of Ubc13FH (end concentration 75 nM, 10 μL volume) with the MultiFlo system and incubation for one hour at room temperature, both beads (Strep-Tactin Alpha Donor beads and Nickel-Chelate acceptor beads; end concentrations 4 μg each, 10 μL volume each) were mixed and added using the MultiFlo system in subdued light. Read-out of the plates occurred after another hour of incubation at room temperature. Statistical parameters including the coefficient of variation, Z′ factor and signal window were calculated to determine the quality of the HTS campaign. To evaluate the efficacy of the compounds, ALPHAScreen units of compound-treated samples were referred to DMSO control treated samples. Thereby, the TRAF6D57K mutant served as the control for minimum signal and was included on every plate of the screening. Compounds that inhibited TRAF6WTStrepII-Ubc13FH by more than 25% were considered as actives. After elimination of ALPHAScreen frequent hitter compounds and His-tag frequent hitters (Schorpp, K., I. Rothenaigner, E. Salmina, et al., Identification of Small-Molecule Frequent Hitters from AlphaScreen High-Throughput Screens. J Biomol Screen, 2014. 19(5): p. 715-26), 178 compounds were defined as primary hits and were subsequently tested in five-point serial dilution assays (2.5-40 μM) in TRAF6WTStrepII-Ubc13FH ALPHAScreen experiments. Only compounds with dose-dependent effects on TRAF6WTStrepII-Ubc13FH (n=27) were taken for further research. For analog testing, all compounds were analyzed in ten-point titration (0.2-100 μM) in TRAF6WTStrepII-Ubc13FH ALPHAScreen experiments. In parallel, the compounds were tested in the ALPHAScreen TruHits Kit (PerkinElmer) to rule out unspecific interference with the ALPHAScreen technology.
(In general: In Alpha technology, singlet oxygen from a donor bead excites a nearby acceptor bead.)
As a reminder, the IC50 is the concentration that inhibits the measured activity by half. Low values mean greater potency in that assay, high ones weaker potency in that assay. Consider `Cc1nn(-c2ccc3nnc(C)n3n2)c(C)c1CCC(=O)N1CCN(c2ccccc2F)CC1` [Compound 14, 3-(3,5-dimethyl-1-(3-methyl-[1,2,4]triazolo[4,3-b]pyridazin-6-yl)-1H-pyrazol-4-yl)-1-(4-(2-fluorophenyl)piperazin-1-yl)propan-1-one], for which the IC50 is at most 30 µM.

With `Cc1nn(-c2ccc3nnc(C)n3n2)c(C)c1CCC(=O)NCCCc1ccccc1` [Compound 15, 3-(3,5-dimethyl-1-(3-methyl-[1,2,4]triazolo[4,3-b]pyridazin-6-yl)-1H-pyrazol-4-yl)-N-(3-phenylpropyl)propanamide], the IC50 was at most 30 µM.

Regarding `Cc1nn(-c2ccc3nncn3n2)c(C)c1CCC(=O)N1CCN(c2ccccn2)CC1` [Compound 12, 3-(1-([1,2,4]triazolo[4,3-b]pyridazin-6-yl)-3,5-dimethyl-1H-pyrazol-4-yl)-1-(4-(pyridin-2-yl)piperazin-1-yl)propan-1-one], the IC50 is at most 10 µM.

As to `COc1ccc(N2CCN(C(=O)CCc3c(C)nn(-c4ccc5nnc(C)n5n4)c3C)CC2)cc1` [Compound 7, 3-(3,5-dimethyl-1-(3-methyl-[1,2,4]triazolo[4,3-b]pyridazin-6-yl)-1H-pyrazol-4-yl)-1-(4-(4-methoxyphenyl)piperazin-1-yl)propan-1-one], the IC50 is at most 10 µM.

Turning to `Cc1nn(-c2ccc3nnc(C)n3n2)c(C)c1CCC(=O)N1CCCC1` [Compound 6, 3-(3,5-dimethyl-1-(3-methyl-[1,2,4]triazolo[4,3-b]pyridazin-6-yl)-1H-pyrazol-4-yl)-1-(pyrrolidin-1-yl)propan-1-one], the half-maximal inhibitory concentration (IC50) is at most 10 µM.

As for `Cc1nn(-c2ccc3nncn3n2)c(C)c1CCC(=O)N1CCC(Cc2ccccc2)CC1` [Compound 16, 3-(1-([1,2,4]triazolo[4,3-b]pyridazin-6-yl)-3,5-dimethyl-1H-pyrazol-4-yl)-1-(4-benzylpiperidin-1-yl)propan-1-one], the 50% inhibitory concentration (IC50) was at most 30 µM.

Compound `Cc1nn(-c2ccc3nnc(C)n3n2)c(C)c1CCC(=O)NCCc1c[nH]c2ccccc12` [Compound 20, N-(2-(1H-indol-3-yl)ethyl)-3-(3,5-dimethyl-1-(3-methyl-[1,2,4]triazolo[4,3-b]pyridazin-6-yl)-1H-pyrazol-4-yl)propanamide] gave a half-inhibitory concentration (IC50) of at most 30 µM.

As to `COc1ccc(N2CCN(C(=O)CCc3c(C)nn(-c4ccc5nncn5n4)c3C)CC2)cc1` [Compound 9, 3-(1-([1,2,4]triazolo[4,3-b]pyridazin-6-yl)-3,5-dimethyl-1H-pyrazol-4-yl)-1-(4-(4-methoxyphenyl)piperazin-1-yl)propan-1-one], the half-maximal inhibitory concentration (IC50) is at most 10 µM.

Compound `Cc1nn(-c2ccc3nnc(C)n3n2)c(C)c1CCC(=O)N1CCN(c2ccccn2)CC1` [Compound 2, 3-(3,5-dimethyl-1-(3-methyl-[1,2,4]triazolo[4,3-b]pyridazin-6-yl)-1H-pyrazol-4-yl)-1-(4-(pyridin-2-yl)piperazin-1-yl)propan-1-one] displayed an IC50 of at most 3 µM.

In the case of `Cc1nn(-c2ccc3nnc(C)n3n2)c(C)c1CCC(=O)NCc1ccccc1` [Compound 21, N-benzyl-3-(3,5-dimethyl-1-(3-methyl-[1,2,4]triazolo[4,3-b]pyridazin-6-yl)-1H-pyrazol-4-yl)propanamide], the IC50 is at most 30 µM.

Turning to `COc1cccc(N2CCN(C(=O)CCc3c(C)nn(-c4ccc5nnc(C)n5n4)c3C)CC2)c1` [Compound 61, 3-(3,5-dimethyl-1-(3-methyl-[1,2,4]triazolo[4,3-b]pyridazin-6-yl)-1H-pyrazol-4-yl)-1-(4-(3-methoxyphenyl)piperazin-1-yl)propan-1-one], the IC50 was at most 3 µM.

`Cc1ccc(CNC(=O)CCc2c(C)nn(-c3ccc4nnc(C)n4n3)c2C)o1` [Compound 13, 3-(3,5-dimethyl-1-(3-methyl-[1,2,4]triazolo[4,3-b]pyridazin-6-yl)-1H-pyrazol-4-yl)-N-((5-methylfuran-2-yl)methyl)propanamide] showed a half-maximal inhibitory concentration (IC50) of at most 10 µM.

On to `Cc1nn(-c2ccc3nncn3n2)c(C)c1CCC(=O)N1CCN(c2ccccc2)CC1` [Compound 10, 3-(1-([1,2,4]triazolo[4,3-b]pyridazin-6-yl)-3,5-dimethyl-1H-pyrazol-4-yl)-1-(4-phenylpiperazin-1-yl)propan-1-one], for which the half-maximal inhibitory concentration (IC50) is at most 10 µM.

`Cc1nn(-c2ccc3nnc(C)n3n2)c(C)c1CCC(=O)N1CCN(c2ccc(F)cc2)CC1` [Compound 4, 3-(3,5-dimethyl-1-(3-methyl-[1,2,4]triazolo[4,3-b]pyridazin-6-yl)-1H-pyrazol-4-yl)-1-(4-(4-fluorophenyl)piperazin-1-yl)propan-1-one] came in with a concentration for half-maximal inhibition (IC50) of at most 3 µM.

`Cc1nn(-c2ccc3nncn3n2)c(C)c1CCC(=O)N1CCN(c2ccc(F)cc2)CC1` [Compound 5, 3-(1-([1,2,4]triazolo[4,3-b]pyridazin-6-yl)-3,5-dimethyl-1H-pyrazol-4-yl)-1-(4-(4-fluorophenyl)piperazin-1-yl)propan-1-one]: the IC50 is at most 10 µM.

Consider `Cc1nn(-c2ccc3nnc(C)n3n2)c(C)c1CCC(=O)N1CCN(Cc2cccc(Cl)c2)CC1` [Compound 11, 1-(4-(3-chlorobenzyl)piperazin-1-yl)-3-(3,5-dimethyl-1-(3-methyl-[1,2,4]triazolo[4,3-b]pyridazin-6-yl)-1H-pyrazol-4-yl)propan-1-one], for which the half-inhibitory concentration (IC50) was at most 10 µM.

Compound `COc1cccc(N2CCN(C(=O)CCc3c(C)nn(-c4ccc5nncn5n4)c3C)CC2)c1` [Compound 8, 3-(1-([1,2,4]triazolo[4,3-b]pyridazin-6-yl)-3,5-dimethyl-1H-pyrazol-4-yl)-1-(4-(3-methoxyphenyl)piperazin-1-yl)propan-1-one] came in with an IC50 of at most 10 µM.

In turn, `Cc1nn(-c2ccc3nnc(C)n3n2)c(C)c1CCC(=O)NCc1ccc(Cl)cc1` [Compound 18, N-(4-chlorobenzyl)-3-(3,5-dimethyl-1-(3-methyl-[1,2,4]triazolo[4,3-b]pyridazin-6-yl)-1H-pyrazol-4-yl)propanamide] showed an IC50 of at most 30 µM.

`Cc1nn(-c2ccc3nnc(C)n3n2)c(C)c1CCC(=O)N1CCN(c2ccccc2)CC1` [Compound 1, 3-(3,5-dimethyl-1-(3-methyl-[1,2,4]triazolo[4,3-b]pyridazin-6-yl)-1H-pyrazol-4-yl)-1-(4-phenylpiperazin-1-yl)propan-1-one]: the concentration for half-maximal inhibition (IC50) is at most 3 µM.

The same test, now with this note: inhibition of TRAF6-UBC13 interaction; read-out: IC50 Alphascreen.
`Cc1nn(-c2ccc3nncn3n2)c(C)c1CCC(=O)N1CCCC1` [Compound 25, 3-(1-([1,2,4]triazolo[4,3-b]pyridazin-6-yl)-3,5-dimethyl-1H-pyrazol-4-yl)-1-(pyrrolidin-1-yl)propan-1-one]: the inhibition at 100 µM is at least 30%.

With `Cc1nn(-c2ccc3nncn3n2)c(C)c1CCC(=O)N1CCC(C)CC1` [Compound 24, 3-(1-([1,2,4]triazolo[4,3-b]pyridazin-6-yl)-3,5-dimethyl-1H-pyrazol-4-yl)-1-(4-methylpiperidin-1-yl)propan-1-one], the inhibition at 100 µM is at least 30%.

With `Cc1nn(-c2ccc3nncn3n2)c(C)c1CCC(=O)NCCCc1ccccc1` [Compound 22, 3-(1-([1,2,4]triazolo[4,3-b]pyridazin-6-yl)-3,5-dimethyl-1H-pyrazol-4-yl)-N-(3-phenylpropyl)propanamide], the inhibition at 100 µM is at least 30%.

`Cc1nn(-c2ccc3nnc(C)n3n2)c(C)c1CCC(=O)NCc1ccccc1F` [Compound 26, 3-(3,5-dimethyl-1-(3-methyl-[1,2,4]triazolo[4,3-b]pyridazin-6-yl)-1H-pyrazol-4-yl)-N-(2-fluorobenzyl)propanamide]: the inhibition at 100 µM was at least 30%.
